Experimental data as given in US20090239887A1, “Method of resolution and antiviral activity of 1,3-oxathiolane nucleoside enantiomers” (Emory University, priority 1990, published 2009).
Like-named read-outs stand apart in the source and are kept apart here.

Tests used:
CEM cells = conditions: human
HIV-1 (strain LAV) = test: microbe, parasite or virus in culture; type: cell-based
From the text: It is often desirable to screen a number of racemic mixtures of nucleosides as a preliminary step to determine which warrant further resolution into enantiomerically enriched components and evaluation of antiviral activity. The ability of nucleosides to inhibit HIV can be measured by various experimental techniques. The technique used herein, and described in detail below, measures the inhibition of viral replication in phytohemagglutinin (PHA) stimulated human peripheral blood mononuclear (PBM) cells infected with HIV-1 (strain LAV). The amount of virus produced is determined by measuring the virus-coded reverse transcriptase enzyme. The amount of enzyme produced is proportional to the amount of virus produced.
A. Three-day-old phytohemagglutinin-stimulated PBM cells (10^6 cells/ml) from hepatitis B and HIV-1 seronegative healthy donors were infected with HIV-1 (strain LAV) at a concentration of about 100 times the 50% tissue culture infectious dose (TICD 50) per ml and cultured in the presence and absence of various concentrations of antiviral compounds.
B. Approximately one hour after infection, the medium, with the compound to be tested (2 times the final concentration in medium) or without compound, was added to the flasks (5 ml; final volume 10 ml). AZT was used as a positive control.
C. The cells were exposed to the virus (about 2×10^5 dpm/ml, as determined by reverse transcriptase assay) and then placed in a CO2 incubator. HIV-1 (strain LAV) was obtained from the Center for Disease Control, Atlanta, Ga. The methods used for culturing the PBM cells, harvesting the virus and determining the reverse transcriptase activity were those described by McDougal et al. (J. Immun. Meth. 76, 171-183, 1985) and Spira et al. (J. Clin. Meth. 25, 97-99, 1987), except that fungizone was not included in the medium (see Schinazi, et al., Antimicrob. Agents Chemother. 32, 1784-1787 (1988); Id., 34:1061-1067 (1990)).
D. On day 6, the cells and supernatant were transferred to a 15 ml tube and centrifuged at about 900 g for 10 minutes. Five ml of supernatant were removed and the virus was concentrated by centrifugation at 40,000 rpm for 30 minutes (Beckman 70.1 Ti rotor). The solubilized virus pellet was processed for determination of the levels of reverse transcriptase. Results are expressed in dpm/ml of sampled supernatant. Virus from smaller volumes of supernatant (1 ml) can also be concentrated by centrifugation prior to solubilization and determination of reverse transcriptase levels.

Vero cells = conditions: African green monkey
hepG2 cells = tested on: hepG2 cells
Protocol: (§1) Studies were undertaken using radiolabeled agent in order to follow the intracellular profiles of the parent drug and metabolites detected within the cell. All studies were conducted in duplicate. […] Cells are exposed to the drug for 2, 6, 12 and 24 hours. At these timepoints, the medium is removed and the cells are washed two times with cold Hank's balanced salt solution. Extraction is performed with addition of 0.2 ml of 60% cold methanol/water and stored overnight at −70° C. The following morning, the suspensions are centrifuged and extractions are repeated two times for 0.5 hours at −70° C. The total supernatants (0.6 ml) are lyophilized to dryness. The residues are resuspended in 250 μl of water and aliquots comprising between 50 and 100 μl are analyzed by HPLC. Quantitation of intracellular parent drug and metabolic derivatives are conducted by HPLC. Because of the potential acid lability of some compounds, a buffer system close to physiological pH is used for the separation of the metabolites.

human PBM cells = conditions: 10 μM radiolabeled FTC, 2-24 hours
Protocol: as §1

[1] = Cytotoxicity in mitogen stimulated uninfected human PBM cells (trypan blue exclusion); type: cell-based
From the text: The cells were counted after 6 days using a hemacytometer and the trypan blue exclusion method, as described by Schinazi et al., Antimicrobial Agents and Chemotherapy, 22(3), 499 (1982).

Compound: Nc1nc(=O)n(C2CSC(CO)O2)cc1F (racemic) [DLS-022, 2-hydroxymethyl-5-(5-fluorocytosin-1-yl)-1,3-oxathiolane]
- toxicity (CEM cells): > 100 µM
- DPM/ml (HIV-1 (strain LAV); 0.0001 μM): 73,755 DPM/ml
- DPM/ml (HIV-1 (strain LAV); 0.005 μM): 83,005 DPM/ml
- DPM/ml (HIV-1 (strain LAV); 0.01 μM): 60,465 DPM/ml
- DPM/ml (HIV-1 (strain LAV); 0.05 μM): 34,120 DPM/ml
- DPM/ml (HIV-1 (strain LAV); 0.1 μM): 14,160 DPM/ml
- DPM/ml (HIV-1 (strain LAV); 0.5 μM): 18,095 DPM/ml
- DPM/ml (HIV-1 (strain LAV); 1 μM): 7,555 DPM/ml
- DPM/ml (HIV-1 (strain LAV); 5 μM): 7,940 DPM/ml
- DPM/ml (HIV-1 (strain LAV); 10 μM): 5,810 DPM/ml
- inhibition at 0.0001 µM (HIV-1 (strain LAV); Human immunodeficiency virus 1, PBMC, 0.0001 μM, read-out: % Inhibition (Corrected)): 26.6%
- EC50 (HIV-1 (strain LAV); Human immunodeficiency virus 1, PBMC, human PBM cells infected with HIV-1 (strain LAV), Table 3, read-out: Antiviral EC50): 11 nM
- EC50 (HIV-1 (strain LAV); Human immunodeficiency virus 1, PBMC, human PBM cells infected with HIV-1, enantiomers isolated by chiral HPLC (Example 3), read-out: EC50): 18 nM
- EC50 (HIV-1 (strain LAV); Human immunodeficiency virus 1, PBMC, human PBM cells infected with HIV-1, enantiomers resolved by method of Example 2 (FIG. 5), read-out: EC50): 17 nM
- inhibition at 0.005 µM (HIV-1 (strain LAV); Human immunodeficiency virus 1, PBMC, 0.005 μM, read-out: % Inhibition (Corrected)): 16.3%
- inhibition at 0.01 µM (HIV-1 (strain LAV); Human immunodeficiency virus 1, PBMC, 0.01 μM, read-out: % Inhibition (Corrected)): 41.3%
- inhibition at 0.05 µM (HIV-1 (strain LAV); Human immunodeficiency virus 1, PBMC, 0.05 μM, read-out: % Inhibition (Corrected)): 70.4%
- inhibition at 0.5 µM (HIV-1 (strain LAV); Human immunodeficiency virus 1, PBMC, 0.5 μM, read-out: % Inhibition (Corrected)): 88.1%
- inhibition at 1 µM (HIV-1 (strain LAV); Human immunodeficiency virus 1, PBMC, 1 μM, read-out: % Inhibition (Corrected)): 99.7%
- inhibition at 5 µM (HIV-1 (strain LAV); Human immunodeficiency virus 1, PBMC, 5 μM, read-out: % Inhibition (Corrected)): 99.3%
- inhibition at 10 µM (HIV-1 (strain LAV); Human immunodeficiency virus 1, PBMC, 10 μM, read-out: % Inhibition (Corrected)): 102%
- activity against HBV (HBV (hepatitis B virus)): effective
- toxicity (Vero cells): > 100 µM
- metabolism to triphosphate in human liver cells (hepG2 cells; hepG2 cells): metabolize a large percentage
- uptake by hepG2 cells (hepG2 cells; human liver cells): taken up by hepG2 cells in large amounts
- uptake in human lymphocytes (human PBM cells): readily taken up
- IC50 at 6 days [1]: > 100000 nM
